Data: US20230114241A1, “METHODS OF TREATING EPILEPSY USING THE SAME” (Trevena, Inc., priority 2019, published 2023)

Legend:
[1] = target: T1, human sphingosine-1-phosphate receptor 1 (S1P1) (Homo sapiens, UniProt P21453); experiment: Inhibition of cAMP production (HTRF cAMP HiRange), S1P1 CHO-K1 cells; format: cell-based; details: for Emax: CHO-K1, efficacy normalized to maximum efficacy of fingolimod, read-out: hS1P1 CAMP SPAN; for EC50: read-out: hS1P1 CAMP pEC50 (converted)
Method in brief: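 CHO-K1 cells co-expressing human S1P1 (C-terminal ProLink tag) and EA-β-arrestin2, plated overnight; after 30 min compound incubation at 37 °C, intracellular cAMP measured by HTRF TR-FRET following 1 h at room temperature. Values normalized to fingolimod.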
Target sequence in this assay (P21453 whole entry): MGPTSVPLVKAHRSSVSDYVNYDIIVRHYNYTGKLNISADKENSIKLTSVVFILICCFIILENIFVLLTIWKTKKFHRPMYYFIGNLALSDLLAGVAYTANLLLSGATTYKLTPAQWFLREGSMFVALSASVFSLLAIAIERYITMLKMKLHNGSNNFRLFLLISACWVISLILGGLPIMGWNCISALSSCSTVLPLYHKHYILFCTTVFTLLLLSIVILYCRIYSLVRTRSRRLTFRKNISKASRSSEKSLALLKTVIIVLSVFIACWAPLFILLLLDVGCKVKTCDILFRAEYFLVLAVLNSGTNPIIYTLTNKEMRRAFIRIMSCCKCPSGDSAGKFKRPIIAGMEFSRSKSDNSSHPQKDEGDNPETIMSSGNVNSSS

[2] = target: T1, human sphingosine-1-phosphate receptor 1 (S1P1); experiment: β-Arrestin2 recruitment assay (PathHunter), S1P1 CHO-K1 cells; format: cell-based; details: for Emax: efficacy normalized to maximum efficacy of fingolimod, read-out: hS1P1 B-arrestin2 SPAN; for EC50: β-arrestin2 recruitment, read-out: hS1P1 B-arrestin2 pEC50 (converted)
Method in brief: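 CHO-K1 cells co-expressing EA-β-arrestin2 and ProLink-tagged human S1P1 plated overnight, then stimulated 60 min at 37 °C. Enzyme-fragment complementation (β-galactosidase) detected after 1 h at room temperature by luminescence; values normalized to fingolimod.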
Target sequence in this assay (P21453 whole entry): as above
Target sequence in this assay (P32121 whole entry partner): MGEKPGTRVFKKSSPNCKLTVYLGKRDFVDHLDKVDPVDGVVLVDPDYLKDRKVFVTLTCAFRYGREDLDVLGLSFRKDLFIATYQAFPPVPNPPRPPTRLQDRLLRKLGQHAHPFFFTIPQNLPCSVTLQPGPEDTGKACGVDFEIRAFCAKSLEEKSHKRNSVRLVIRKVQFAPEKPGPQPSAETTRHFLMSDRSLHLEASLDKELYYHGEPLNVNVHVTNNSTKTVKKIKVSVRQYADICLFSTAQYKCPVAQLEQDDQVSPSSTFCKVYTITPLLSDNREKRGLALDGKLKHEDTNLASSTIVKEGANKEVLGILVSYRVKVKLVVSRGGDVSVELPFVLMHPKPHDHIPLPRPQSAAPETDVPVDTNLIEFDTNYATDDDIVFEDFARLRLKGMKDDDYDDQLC

[3] = inhibition of cAMP production, potency
[4] = CHO-K1, β-arrestin2 recruitment
[5] = inhibition of cAMP production, S1P1

Row | SMILES | Emax ([1]; inhibition of cAMP production) [%] | EC50 [1, 3] [µM] | Emax [2, 4] [%] | EC50 ([2]; potency) [µM] | Emax [1] [%] | EC50 [1, 5] [µM] | Emax ([2]; CHO-K1) [%] | EC50 ([2]; S1P1) [µM]
1 | Cc1cc(C)cc(-c2noc(-c3ccc4c(c3)nnn4C3CCOCC3)n2)c1 [Compound 93, 5-[3-(3,5-dimethyl-phenyl)-1,2,4-oxadiazol-5-yl]-1-(oxan-4-yl)-1H-1,2,3-benzotriazole] | < 75 | > 0.316 | > 75 | > 10 |  |  |  | 
2 | N#Cc1cc(-c2nnc(-c3ccc4c(c3)CCC(=O)N4)o2)ccc1NCCF [Compound 476, 2-[(2-fluoroethyl)amino]-5-[5-(2-oxo-1,2,3,4-tetrahydroquinolin-6-yl)-1,3,4-oxadiazol-2-yl]benzonitrile] |  |  |  |  | > 75 | < 0.316 | < 75 | < 10
3 | CC(C)n1nnc2cc(-c3noc(-c4ccc(-c5ccccc5)cc4)n3)ccc21 [Compound 248, 5-([1,1′-biphenyl]-4-yl)-3-(1-isopropyl-1H-benzo[d][1,2,3]triazol-5-yl)-1,2,4-oxadiazole] | < 75 | > 0.316 | < 75 | > 10 |  |  |  | 
4 | CC(C)n1ccc2cc(-c3noc(-c4ccc(F)cc4)n3)ccc21 [Compound 400, 5-(4-fluorophenyl)-3-(1-isopropyl-1H-indol-5-yl)-1,2,4-oxadiazole] |  |  |  |  | < 75 | > 0.316 | < 75 | > 10
5 | c1ccc(-c2noc(-c3ccc4c(c3)nnn4C3CCCC3)n2)cc1 [Compound 7, 1-cyclopentyl-5-(3-phenyl-1,2,4-oxadiazol-5-yl)-1H-1,2,3-benzotriazole] | > 75 | > 0.316 | > 75 | > 10 |  |  |  | 
6 | CCC1(CC)CC(=O)c2cc(-c3nc(-c4ccc(NS(C)(=O)=O)cc4OC)no3)ccc2O1 [Compound 568, N-{4-[5-(2,2-diethyl-4-oxo-3,4-dihydro-2H-1-benzopyran-6-yl)-1,2,4-oxadiazol-3-yl]-3-methoxyphenyl}methane-sulfonamide] |  |  |  |  | > 75 | < 0.316 | > 75 | < 10
7 | CC(C)n1ccc2cc(-c3noc(-c4ccccc4F)n3)ccc21 [Compound 387, 5-(2-fluorophenyl)-3-(1-isopropyl-1H-indol-5-yl)-1,2,4-oxadiazole] |  |  |  |  | > 75 | > 0.316 | > 75 | < 10
8 | COc1ccccc1-c1noc(-c2ccc3c(c2)NC(=O)CN3)n1 [Compound 614, 7-[3-(2-methoxyphenyl)-1,2,4-oxadiazol-5-yl]-1,2,3,4-tetrahydro-quinoxalin-2-one] |  |  |  |  | > 75 | > 0.316 | < 75 | > 10
9 | CC(C)n1nnc2cc(-c3ncc(-c4ccccc4F)s3)ccc21 [Compound 63, 5-(2-fluorophenyl)-2-(1-isopropyl-1H-benzo[d][1,2,3]triazol-5-yl)thiazole] | < 75 | < 0.316 | < 75 | > 10 |  |  |  | 
10 | CC(C)n1ccc2cc(-c3nsc(-c4ccccc4F)n3)ccc21 [Compound 380, 5-[5-(2-fluorophenyl)-1,2,4-thiadiazol-3-yl]-1-(propan-2-yl)-1H-indole] |  |  |  |  | < 75 | > 0.316 | < 75 | > 10
11 | N#Cc1cc(-c2nnc(-c3ccc4c(c3)CCC(=O)N4)o2)ccc1NCC(F)F [Compound 477, 2-[(2,2-difluoroethyl)amino]-5-[5-(2-oxo-1,2,3,4-tetrahydro-quinolin-6-yl)-1,3,4-oxadiazol-2-yl]benzonitrile] |  |  |  |  | > 75 | < 0.316 | < 75 | < 10
12 | CC(C)c1ccc(-c2nc(-c3ccc4c(c3)nnn4C(C)C)no2)cn1 [Compound 25, 3-(1-isopropyl-1H-benzo[d][1,2,3]triazol-5-yl)-5-(6-isopropyl-pyridin-3-yl)-1,2,4-oxadiazole] | < 75 | > 0.316 | < 75 | > 10 |  |  |  | 
13 | CCC1(CC)CC(=O)c2cc(-c3nc(-c4cnccn4)no3)ccc2O1 [Compound 617, 2,2-diethyl-6-(3-(pyrazin-2-yl)-1,2,4-oxadiazol-5-yl)chroman-4-one] |  |  |  |  | < 75 | > 0.316 | > 75 | > 10
14 | CC(C)n1nnc2cc(-c3nc(-c4ccccc4Cl)no3)ccc21 [Compound 17] | > 75 | < 0.316 | > 75 | < 10 |  |  |  | 
15 | N#Cc1cc(-c2nnc(-c3ccc4c(c3)CCC(=O)N4)o2)ccc1NCC1CC1 [Compound 475, 2-[(cyclopropyl-methyl)amino]-5-[5-(2-oxo-1,2,3,4-tetrahydroquinolin-6-yl)-1,3,4-oxadiazol-2-yl]benzonitrile] |  |  |  |  | > 75 | < 0.316 | < 75 | < 10
16 | COc1ccccc1-c1nc(-c2ccc3c(ccn3C(C)C)c2)ns1 [Compound 375, 5-[5-(2-methoxy-phenyl)-1,2,4-thiadiazol-3-yl]-1-(propan-2-yl)-1H-indole] |  |  |  |  | > 75 | < 0.316 | < 75 | < 10

Other lines, results leading:

Row | Emax ([1]; inhibition of cAMP production) [%] | EC50 [1, 3] [µM] | Emax [2, 4] [%] | EC50 ([2]; potency) [µM] | Emax [1] [%] | EC50 [1, 5] [µM] | Emax ([2]; CHO-K1) [%] | EC50 ([2]; S1P1) [µM] | SMILES
17 |  |  |  |  | > 75 | < 0.316 | > 75 | < 10 | CCC1(CC)CC(=O)c2cc(-c3nc(-c4cccnc4F)no3)ccc2O1 [Compound 547, 2,2-diethyl-6-(3-(2-fluoropyridin-3-yl)-1,2,4-oxadiazol-5-yl)chroman-4-one]
18 |  |  |  |  | < 75 | < 0.316 | < 75 | < 10 | CCC1(CC)CC(=O)c2cc(-c3nc(-c4cncc(NC(C)=O)c4)no3)ccc2O1 [Compound 538, N-(5-(5-(2,2-diethyl-4-oxochroman-6-yl)-1,2,4-oxadiazol-3-yl)pyridin-3-yl)acetamide]
19 |  |  |  |  | > 75 | > 0.316 | < 75 | > 10 | O=C1CCc2cc(-c3nc(-c4cccnc4)no3)ccc2N1 [Compound 386, 6-[3-(pyridin-3-yl)-1,2,4-oxadiazol-5-yl]-1,2,3,4-tetrahydro-quinolin-2-one]
20 |  |  |  |  | > 75 | < 0.316 | < 75 | < 10 | CCC1(CC)CC(=O)c2cc(-c3nc(-c4ccnc(NC(C)=O)c4)no3)ccc2O1 [Compound 512, N-(4-(5-(2,2-diethyl-4-oxochroman-6-yl)-1,2,4-oxadiazol-3-yl)pyridin-2-yl)acetamide]
21 | < 75 | > 0.316 | < 75 | > 10 |  |  |  |  | FC(F)(F)c1cccc(-c2nc(-c3ccc4c(c3)nnn4C3CCCC3)no2)c1 [Compound 12, 3-(1-cyclopentyl-1H-benzo[d][1,2,3]triazol-5-yl)-5-(3-(trifluoro-methyl)phenyl)-1,2,4-oxadiazole]
22 |  |  |  |  | < 75 | > 0.316 | < 75 | < 10 | CC1CC(=O)c2ccc(-c3nc(-c4ccncc4)no3)cc2O1 (centres unmarked) [Compound 536, 2-methyl-7-[3-(pyridin-4-yl)-1,2,4-oxadiazol-5-yl]-3,4-dihydro-2H-1-benzopyran-4-one]
23 | > 75 | > 0.316 | > 75 | > 10 |  |  |  |  | C=CCn1nnc2cc(-c3noc(-c4ccccc4Br)n3)ccc21 [Compound 42, 3-(1-allyl-1H-benzo[d][1,2,3]triazol-5-yl)-5-(2-bromo-phenyl)-1,2,4-oxadiazole]
24 | > 75 | < 0.316 | < 75 | < 10 |  |  |  |  | C=CCNc1ccc(-c2nc(-c3ccc4[nH]nnc4c3)no2)cc1C#N [Compound 145, 5-(3-(1H-benzo[d] [1,2,3]triazol-5-yl)-1,2,4-oxadiazol-5-yl)-2-(allylamino)benzonitrile]
25 |  |  |  |  | > 75 | > 0.316 | < 75 | > 10 | Cc1ccccc1-c1csc(-c2ccc3c(ccn3C(C)C)n2)n1 [Compound 409, 2-(1-isopropyl-pyrrolo [3,2-b]pyridin-5-yl)-4-(o-tolyl)thiazole]
26 | < 75 | > 0.316 | < 75 | > 10 |  |  |  |  | CC(C)n1nnc2cc(-c3ncc(-c4ccc(F)cc4)s3)ccc21 [Compound 37, 5-(4-fluorophenyl)-2-(1-isopropyl-benzotriazol-5-yl)thiazole]
27 | > 75 | < 0.316 | > 75 | < 10 |  |  |  |  | CC(C)n1nnc2cc(-c3noc(-c4ccccc4C(F)(F)F)n3)ccc21 [Compound 33, 3-(1-isopropyl-benzotriazol-5-yl)-5-[2-(trifluoromethyl)phenyl]-1,2,4-oxadiazole]
28 | < 75 | > 0.316 | < 75 | > 10 |  |  |  |  | Cc1ccc(-c2noc(-c3ccc4c(c3)nnn4C3CCCC3)n2)s1 [Compound 192, 1-cyclopentyl-5-[3-(5-methylthiophen-2-yl)-1,2,4-oxadiazol-5-yl]-1H-1,2,3-benzotriazole]
29 | < 75 | > 0.316 | < 75 | > 10 |  |  |  |  | CC(C)c1cc(-c2nc(-c3ccc4c(c3)nnn4C(C)C)no2)ccn1 [Compound 167, 3-(1-isopropyl-1H-benzo[d][1,2,3]triazol-5-yl)-5-(2-isopropyl-pyridin-4-yl)-1,2,4-oxadiazole]
